Test results as given in PMC4537502 (Psychopharmacology, 2015).

Assays:
D2R [1] = conditions: read-out: Kd in rat brain tissue; ref Köhler et al. [1985]; cited from earlier work
[2] = system: 6-hydroxydopamine-hemilesioned rats; conditions: 7.9 mg/kg, ref Ponten et al. [2013]; cited from earlier work
sigma-1R [3] = conditions: ^3H-(+)-pentazocine competition, ref Sahlholm et al. [2013]; read-out: high-affinity Ki at sigma-1R; cited from earlier work
D2R [4] = conditions: cited from earlier work
D2R [5] = target: D2R; set-up: method as in Pettersson et al. [2010]; conditions: ref Pettersson et al. [2010]; read-out: high-affinity Ki at D2R; cited from earlier work
habituated rats = conditions: 15.9 mg/kg, ref Rung et al. [2008], Ponten et al. [2010]; cited from earlier work
[6] = system: dopamine release in striatum; conditions: rats, 1.7 mg/kg, ref Ponten et al. [2010]; cited from earlier work
rats = conditions: 15.9 mg/kg, ref Rung et al. [2008], Ponten et al. [2010]; cited from earlier work
[7] = target: dopamine D2 receptor (D2R) (Rattus norvegicus, UniProt P61169); experiment: in vivo
Method: (§1) Because of limited availability of the test drug, the 60 mg/kg dose group was scanned only with ^11C-raclopride.
(§2) After drug administration and about 20 min before each microPET scan, animals were anesthetized with isoflurane (Pharmachemie BV, Haarlem, Netherlands). […] Both tracers were injected as a slow bolus (1 ml of saline-diluted tracer solution infused during a period of 1 min), using a Harvard-style injection pump.
(§3) Two rats were scanned in each scan session. They were positioned on heating mats in a microPET Focus 220 system, in transaxial position above each other with their brains in the field of view. Body temperature of the animals was kept close to normal with electronic temperature controllers. Heart rate and oxygen level of the blood during the scan were monitored using pulse oximeters (PulseSense, Nonin). […] A list mode protocol was used with a 76-min acquisition time.
(§4) Image reconstruction was performed using microPET Manager 2.3.3.6 (Siemens). The PET data were split according to position along the y-axis, so that a separate data set was acquired for each animal. The list mode data of the emission scans were reframed in a dynamic sequence of 6 × 10, 4 × 30, 2 × 60, 1 × 120, 1 × 180, 4 × 300, and 3 × 600 s (with an additional 960-s frame for the rat that was injected first). The data were reconstructed per time frame employing an iterative reconstruction algorithm (OSEM2D with Fourier rebinning, 4 iterations, and 16 subsets). […] Data sets were corrected for decay, random coincidences, scatter, and attenuation.
In ^11C-raclopride scans of the brain, three-dimensional regions of interest (ROIs) were manually drawn over the left and right striatum and cerebellum, using the program ASIPro 6.3.3.0 (Siemens). […] Time-activity curves (TACs) were generated for these regions (Fig. 1). The results are expressed as dimensionless standardized uptake values (PET-SUV), defined as [(tissue activity concentration (MBq/g) × body weight (g) / injected dose (MBq)]. Brain tissue was assumed to have a specific gravity of 1 g/ml.
Plateau values for the striatum-to-cerebellum ratio were derived from this curve fit.

sigma-1R [8] = target: T1, sigma-1R (Rattus norvegicus, UniProt Q9R0C9); experiment: microPET with ^11C-SA4503, Logan graphical analysis and Cunningham-Lassen plot (sigma-1R occupancy); type: in vivo; conditions: for sigma-1R occupancy: rat brain, Cunningham-Lassen plot
T1 construct: from tissue; host or cells: brain of living rats (Wistar Unilever), in vivo microPET
Method: as §1, §2
From these samples, 25 μl of whole blood was collected and plasma (25 μl) was then obtained by centrifugation of the remaining sample (5 min at 13,000×g). Radioactivity in plasma and whole blood was determined using a calibrated gamma counter (CompuGamma CS1282, LKB-Wallac, Turku, Finland). Results are expressed as standardized uptake values (SUV), defined as [(plasma activity concentration (MBq/g) × body weight (g) / injected dose (MBq)]. Rat plasma was assumed to have a specific gravity of 1 g/ml.
as §3, §4
Logan graphical analysis was used to calculate regional tracer distribution volumes (VT). The starting time of the Logan fit was 20 min. Metabolite-corrected plasma radioactivity data were used as input function, and (uncorrected) whole blood radioactivity served to estimate the contribution of blood to brain radioactivity measured by the PET camera. […] The PMOD software package was used for curve fitting.

Arc gene expression = conditions: rats, 10 mg/kg, ref Waters et al. [2014]; cited from earlier work
[9] = rat, 3 and 15 mg/kg pridopidine

T1 sequence (Q9R0C9 whole entry): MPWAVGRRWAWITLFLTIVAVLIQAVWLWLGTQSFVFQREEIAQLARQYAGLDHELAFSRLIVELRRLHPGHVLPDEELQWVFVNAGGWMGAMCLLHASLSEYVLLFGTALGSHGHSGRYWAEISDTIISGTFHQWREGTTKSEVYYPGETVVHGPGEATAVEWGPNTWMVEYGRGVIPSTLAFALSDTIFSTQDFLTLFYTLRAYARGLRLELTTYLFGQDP
Sequence of dopamine D2 receptor (D2R) (P61169 whole entry): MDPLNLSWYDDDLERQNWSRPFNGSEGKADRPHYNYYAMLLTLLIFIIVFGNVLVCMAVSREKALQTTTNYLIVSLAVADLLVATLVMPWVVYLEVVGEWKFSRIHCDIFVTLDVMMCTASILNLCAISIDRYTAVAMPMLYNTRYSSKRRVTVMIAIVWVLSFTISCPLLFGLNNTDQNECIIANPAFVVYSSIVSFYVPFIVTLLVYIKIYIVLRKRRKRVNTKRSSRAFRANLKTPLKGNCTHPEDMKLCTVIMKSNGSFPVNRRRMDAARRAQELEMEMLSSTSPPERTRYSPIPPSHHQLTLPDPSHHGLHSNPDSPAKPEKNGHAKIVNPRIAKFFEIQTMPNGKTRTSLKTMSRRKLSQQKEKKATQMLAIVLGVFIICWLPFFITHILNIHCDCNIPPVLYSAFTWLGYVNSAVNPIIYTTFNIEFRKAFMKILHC

CCN1CCC[C@H]1CNC(=O)c1c(O)c(Cl)cc(Cl)c1OC (racemic) [^11C-raclopride]
Kd (D2R [1]): 0.0012 µM

CCCN1CCC(c2cccc(S(C)(=O)=O)c2)CC1 [pridopidine, 4-[3-(methylsulfonyl)phenyl]-1-propylpiperidine]
effect on L-DOPA-induced rotational asymmetry [2]: decreased L-DOPA-induced rotational asymmetry in 6-hydroxydopamine-hemilesioned rats | Ki (sigma-1R [3]): ~0.07 µM | D2R occupancy (D2R [4]; Sprague-Dawley rats, 10 mg/kg, ex vivo radioligand binding, ref Natesan et al. [2006]): 35% | ED50 of D2R occupancy (D2R [4]; Sprague-Dawley rats, ex vivo radioligand binding, ref Natesan et al. [2006]): 18.99 mg/kg | time to maximal D2R occupancy after s.c. injection (D2R [4]; rat, ref Natesan et al. ([2006])): ≤ 1 h | time maximal D2R occupancy is maintained (D2R [4]; rat, s.c., ref Natesan et al. ([2006])): 4 h | Ki (D2R [5]): 7.52 µM | effect on locomotor activity in habituated rats (habituated rats): increased locomotor activity in habituated rats | effect on dopamine release in striatum [6]: increased dopamine release in striatum | effect on MK-801- and amphetamine-induced hyperlocomotion (rats): decreased MK-801- and amphetamine-induced hyperlocomotion | reduction of ^11C-raclopride binding ([7]; rat striatum, 60 mg/kg pridopidine s.c.): 44–66% | effect on ^11C-raclopride uptake (time-activity curves) ([7]; rat, 3 mg/kg pridopidine): increase tracer uptake in striatum but not in cerebellum | effect on ^11C-raclopride uptake (time-activity curves) ([7]; rat, 15 mg/kg pridopidine): increase tracer uptake in both striatum and cerebellum to a rather minor extent | effect on ^11C-raclopride uptake (time-activity curves) ([7]; rat, 60 mg/kg pridopidine): striking increase of the uptake of ^11C-raclopride in both striatum and cerebellum | changes in ^11C-raclopride binding [7, 9]: No significant changes | receptor occupancy at 60 mg/kg ([7]; rat, sc, read-out: D2R occupancy (SRTM fit)): 44% | sigma-1R occupancy (sigma-1R [8]; pridopidine 3 mg/kg s.c. 60 min before tracer): 56.7 ± 2.3% | sigma-1R occupancy (sigma-1R [8]; pridopidine 15 mg/kg s.c. 60 min before tracer): 84.5 ± 1.7% | VT of ^11C-SA4503 (Logan graphical analysis) (sigma-1R [8]; rat whole brain and brain regions, 3 and 15 mg/kg pridopidine): dose-dependent reduction in VT for all regions investigated | area under the brain time-activity curve (AUC) of ^11C-SA4503 (sigma-1R [8]; [9]): significantly decreased | receptor occupancy at 3 mg/kg (sigma-1R [8]; rat, sc, read-out: sigma-1R occupancy, rat brain, pridopidine 3 mg/kg s.c. 60 min before tracer, Cunningham-Lassen plot): 57 ± 2% | receptor occupancy at 15 mg/kg (sigma-1R [8]; rat, sc, read-out: sigma-1R occupancy, rat brain, pridopidine 15 mg/kg s.c. 60 min before tracer, Cunningham-Lassen plot): 85 ± 2% | effect on Arc gene expression in frontal cortex (Arc gene expression): induced Arc gene expression in frontal cortex
